Laboratory results: patent EP0573218B1, “4-Carboxyimidazoles as angiotensin II antagonists and their thrapeutic use” (SANKYO COMPANY LIMITED, priority 1992, dated 1993)

System: All receptor
Assay: Inhibition of pressor response to intravenous angiotensin II in anaesthetised rats (AII receptor blocking activity)
Assay type: in vivo
Settings: i.v.; dose inhibiting by fifty percent the pressor response to 50 ng/kg i.v. angiotensin II; angiotensin II injected two minutes after test compound; male Wister-Imamichi rats
Experimental: Evaluation of All receptor blocking activity by Inhibition of pressor response to angiotensin II
The biological activity of each compound was assessed by determining the dose required to inhibit the pressor response to intravenous angiotensin II by fifty percent (ID50) in rats. Male Wister-Imamichi rats, each weighing 300 to 400 g, were anaesthesized by intraperitoneal injection of 100 mg/Kg of sodium thiobutabarbital [Inactin (trade name)] and two cannulae were inserted: one into the femoral artery for measuring blood pressure and the other into the femoral vein for injecting drugs. Fifty ng/kg of angiotension II were intravenously administered at intervals of about 10 minutes, and the elevation of blood pressure (normally about 50 mmHg) was observed. After constant pressor responses to angiotensin II were obtained, a test compound was intravenously administered. Two minutes later, angiotension II was again injected, and the inhibitory effect of the test compound was estimated. The percent inhibitions of the pressor response to angiotensin II by progressive increase of the test compound was used to calculate the value of ID50. Angiotensin II was used in this test dissolved in 0.5 % bovine serum albumin (BSA) and the test compounds were dissolved in 100% dimethyl sulphoxide (DMSO).

SMILES	ID50 [mg/kg]
COCc1nc(C(C)(C)O)c(C(=O)O)n1Cc1ccc(-c2ccccc2-c2nnn[nH]2)cc1 [Example 2, 4-(1-Hydroxy-1-methylethyl)-2-methoxymethyl-1-{4-[2-(tetrazol-5-yl)phenyl]phenyl}methylimidazole-5-carboxylic acid]	0.0066
CCCOCc1nc(C(C)(C)O)c(C(=O)O)n1Cc1ccc(-c2ccccc2-c2nnn[nH]2)cc1 [Example 10, 4-(1-Hydroxy-1-methylethyl)-2-propoxymethyl-1-{4-[2-(tetrazol-5-yl)phenyl]phenyl}methylimidazole-5-carboxylic acid]	0.016
CSCc1nc(C(C)(C)O)c(C(=O)O)n1Cc1ccc(-c2ccccc2-c2nnn[nH]2)cc1 [Example 22, 4-(1-Hydroxy-1-methylethyl)-2-methylthiomethyl-1-{4-[2-(tetrazol-5-yl)phenyl]phenyl}methyl-imidazole-5-carboxylic acid]	0.025
COC(C)c1nc(C(C)(C)O)c(C(=O)O)n1Cc1ccc(-c2ccccc2-c2nnn[nH]2)cc1 (stereo not shown) [Example 14, 4-(1-Hydroxy-1-methylethyl)-2-(1-methoxyethyl)-1-{4-[2-(tetrazol-5-yl)phenyl]phenyl}methyl-imidazole-5-carboxylic acid]	0.074
CSc1nc(C(C)(C)O)c(C(=O)O)n1Cc1ccc(-c2ccccc2-c2nnn[nH]2)cc1 [Example 25, 4-(1-Hydroxy-1-methylethyl)-2-methylthio-1-{4-[2-(tetrazol-5-yl)phenyl]phenyl}methyl-imidazole-5-carboxylic acid]	0.026
CCSc1nc(C(C)(C)O)c(C(=O)O)n1Cc1ccc(-c2ccccc2-c2nnn[nH]2)cc1 [Example 27, 2-Ethylthio-4-(1-hydroxy-1-methylethyl)-1-{4-[2-(tetrazol-5-yl)phenyl]phenyl}methyl-imidazole-5-carboxylic acid]	0.019
CCOCc1nc(C(C)(C)O)c(C(=O)O)n1Cc1ccc(-c2ccccc2-c2nnn[nH]2)cc1 [Example 6, 2-Ethoxymethyl-4-(1-hydroxy-1-methylethyl)-1-{4-[2-(tetrazol-5-yl)phenyl]phenyl}methylimidazole-5-carboxylic acid]	0.0059
